Laboratory results: patent US8614202B2, “2α-methyl and 2β-methyl analogs of 19,26,27-trinor-(20S)-1α-hydroxyvitamin D3 and their uses” (Wisconsin Alumni Research Foundation, priority 2004, dated 2013)

Experiments:
[1] = biological target: T1, full-length recombinant rat vitamin D receptor (Rattus norvegicus, UniProt P13053); test: Vitamin D receptor binding, competition with [3H]-1,25(OH)2D3; conditions: full-length recombinant rat VDR; 1 nM radioligand
T1 construct: Full-length recombinant rat receptor was expressed in E. coli BL21 (DE3) Codon Plus RIL cells; histidine tag (C); made in house; host or cells: E. coli BL21 (DE3) Codon Plus RIL
T1 sequence (P13053 1-423): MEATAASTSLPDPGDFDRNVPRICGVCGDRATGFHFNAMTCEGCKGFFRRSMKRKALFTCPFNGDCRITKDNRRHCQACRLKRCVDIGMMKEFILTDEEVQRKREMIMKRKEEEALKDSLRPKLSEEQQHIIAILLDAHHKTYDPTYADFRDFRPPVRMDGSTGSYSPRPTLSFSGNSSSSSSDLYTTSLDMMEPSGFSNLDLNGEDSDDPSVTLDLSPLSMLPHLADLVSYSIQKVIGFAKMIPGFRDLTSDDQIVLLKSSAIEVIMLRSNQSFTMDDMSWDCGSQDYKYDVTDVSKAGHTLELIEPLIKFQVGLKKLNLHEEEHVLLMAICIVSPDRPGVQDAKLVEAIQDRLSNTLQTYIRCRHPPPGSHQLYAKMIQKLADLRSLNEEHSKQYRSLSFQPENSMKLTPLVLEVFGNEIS
Source text: Vitamin D Receptor Binding
Full-length recombinant rat receptor was expressed in E. coli BL21 (DE3) Codon Plus RIL cells and purified to homogeneity using two different column chromatography systems. The first system was a nickel affinity resin that utilizes the C-terminal histidine tag on this protein. The protein that was eluted from this resin was further purified using ion exchange chromatography (S-Sepharose Fast Flow). Aliquots of the purified protein were quick frozen in liquid nitrogen and stored at −80° C. until use. For use in binding assays, the protein was diluted in TEDK50 (50 mM Tris, 1.5 mM EDTA, pH7.4, 5 mM DTT, 150 mM KCl) with 0.1% Chaps detergent. The receptor protein and ligand concentration were optimized such that no more than 20% of the added radiolabeled ligand was bound to the receptor.
Radiolabeled and unlabeled ligands were added to 100 mcl of the diluted protein at a final ethanol concentration of ≦10%, mixed and incubated overnight on ice to reach binding equilibrium. The following day, 100 mcl of hydroxylapatite slurry (50%) was added to each tube and mixed at 10-minute intervals for 30 minutes. The hydroxylapaptite was collected by centrifugation and then washed three times with Tris-EDTA buffer (50 mM Tris, 1.5 mM EDTA, pH 7.4) containing 0.5% Titron X-100. […] Total binding was determined from the tubes containing only radiolabeled ligand.

[2] = test system: Human promyelocytic leukemia (HL60) cells; test: HL-60 differentiation (nitro blue tetrazolium reduction); type: cell-based; conditions: four days after treatment
Experimental: The study drugs were dissolved in ethanol and the concentrations determined using UV spectrophotometry. Serial dilutions were prepared so that a range of drug concentrations could be tested without changing the final concentration of ethanol (≦0.2%) present in the cell cultures.
Human promyelocytic leukemia (HL60) cells were grown in RPMI-1640 medium containing 10% fetal bovine serum. The cells were incubated at 37° C. in the presence of 5% CO2.
HL60 cells were plated at 1.2×10^5 cells/ml. Eighteen hours after plating, cells in duplicate were treated with drug. Four days later, the cells were harvested and a nitro blue tetrazolium reduction assay was performed (Collins et al., 1979; J. Exp. Med. 149:969-974). The percentage of differentiated cells was determined by counting a total of 200 cells and recording the number that contained intracellular black-blue formazan deposits. Verification of differentiation to monocytic cells was determined by measuring phagocytic activity (data not shown).

[3] = test system: 24-hydroxylase (24Ohase) gene promoter in ROS 17/2.8 (bone) cells; test: In vitro transcription assay (24-hydroxylase promoter luciferase reporter); type: cell-based; conditions: ROS 17/2.8 cells, 24Ohase-luciferase, sixteen hours after dosing; read-out: EC50, transcriptional activity in bone cells
Experimental: In Vitro Transcription Assay
Transcription activity was measured in ROS 17/2.8 (bone) cells that were stably transfected with a 24-hydroxylase (24Ohase) gene promoter upstream of a luciferase reporter gene (Arbour et al., 1998). Cells were given a range of doses. Sixteen hours after dosing the cells were harvested and luciferase activities were measured using a luminometer. • RLU=relative luciferase units. Intestinal Calcium Transport and Bone Calcium Mobilization

[4] = Bone calcium mobilization (serum calcium) in vitamin D-deficient rats; type: in vivo, Sprague-Dawley rats
Experimental: Male, weanling Sprague-Dawley rats were placed on Diet 11 (0.47% Ca) diet+AEK for one week followed by Diet 11 (0.02% Ca)+AEK for 3 weeks. The rats were then switched to a diet containing 0.47% Ca for one week followed by two weeks on a diet containing 0.02% Ca. Dose administration began during the last week on 0.02% calcium diet. Four consecutive ip doses were given approximately 24 hours apart. Twenty-four hours after the last dose, blood was collected from the severed neck and the concentration of serum calcium determined as a measure of bone calcium mobilization. The first 10 cm of the intestine was also collected for intestinal calcium transport analysis using the everted gut sac method.
Calcium mobilization from bone in vitamin D-deficient animals.

[5] = low calcium diet (0.02%), four consecutive ip doses, overall / all dosages

Structure (SMILES): CCCCC(C)C1CCC2C(=CC=C3CC(O)C(C)C(O)C3)CCCC21C (single isomer, unassigned) [C-19]
- Ki [1]: 0.22 nM
- EC50 [2]: 8.2 nM
- EC50 [3]: 10 nM
- calcium mobilization from bone (serum calcium) ([4]; 0.02% Ca diet, 780 pmol/day for 4 consecutive days): did not result in mobilization of bone calcium
- calcium mobilization from bone (serum calcium) ([4]; 0.02% Ca diet, 2340 pmol/day): without any substantial effect
- calcium mobilization from bone (serum calcium) ([4]; 0.02% Ca diet, 7020 pmol/day): without any substantial effect
- calcium mobilization from bone (serum calcium) [4, 5]: little, if any, activity in mobilizing calcium from bone

Structure (SMILES): CCCCC(C)C1CCC2C(=CC=C3CC(O)C(C)C(O)C3)CCCC21C (single isomer, unassigned) [N-16]
- Ki [1]: 10 nM
- EC50 [2]: 100 nM
- EC50 [3]: 100 nM

Structure (SMILES): C=C1/C(=C\C=C2/CCC[C@]3(C)[C@@H]([C@H](C)CCCC(C)(C)O)CC[C@@H]23)C[C@@H](O)C[C@@H]1O [1,25(OH)2D3, 1α,25-dihydroxyvitamin D3, reference compound]
- EC50 [2]: 2.9 nM
- calcium mobilization from bone (serum calcium) [4, 5]: increased serum calcium levels at all dosages
